# In the supplement of paper PMC10733146:
# Tests used:
# Assay in all cases: viability relative to DMSO control (fraction); higher = less drug effect (more viable cells)
# Conditions in all cases: 48 h
# [1] = tested on: primary AML patient cells (S017)
# Outline: (§1)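 Viability was quantified by CellTiter-Glo luminescence and related to the median of 16 inner DMSO wells. Before that, primary mononuclear tumour cells, fresh or cryopreserved and Ficoll-isolated from blood or bone marrow or prepared from processed lymph node, were plated at 4 × 10^4 cells per well in 384-well plates containing pre-plated compounds at five concentrations, one well each. Plates were incubated in RPMI-1640 with penicillin/streptomycin, L-glutamine and human serum at 37 °C and 5% CO2 for 48 h.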
# [2] = tested on: primary AML patient cells (S012)
# Outline: as §1
# [3] = tested on: primary AML patient cells (S085)
# Outline: as §1
# [4] = tested on: primary AML patient cells (S021)
# Outline: as §1
# [5] = tested on: primary MCL patient cells (S053)
# Outline: as §1
# [6] = tested on: primary FL patient cells (S022)
# Outline: as §1
# [7] = tested on: primary AML patient cells (S091)
# Outline: as §1
# [8] = tested on: primary T-PLL patient cells (S008)
# Outline: as §1
# [9] = tested on: primary MCL patient cells (S068)
# Outline: as §1
# [10] = tested on: primary AML patient cells (S002)
# Outline: as §1
# [11] = tested on: primary BL patient cells (S005)
# Outline: as §1
# [12] = tested on: primary AML patient cells (S037)
# Outline: as §1
# [13] = tested on: primary B-PLL patient cells (S016)
# Outline: as §1
# [14] = tested on: primary AML patient cells (S009)
# Outline: as §1
# [15] = tested on: primary FL patient cells (S087)
# Outline: as §1
# [16] = tested on: primary AML patient cells (S081)
# Outline: as §1
# [17] = tested on: primary AML patient cells (S025)
# Outline: as §1
# [18] = tested on: primary AML patient cells (S011)
# Outline: as §1
# [19] = tested on: primary AML patient cells (S019)
# Outline: as §1
# [20] = tested on: primary MCL patient cells (S041)
# Outline: as §1
compound,measurement,setting,value
Cc1nc(Nc2ncc(C(=O)Nc3c(C)cccc3Cl)s2)cc(N2CCN(CCO)CC2)n1 [Dasatinib],viability,[1]; 0.0016 µM,0.997
same,viability,[1]; 0.008 µM,0.859
same,viability,[1]; 0.04 µM,0.654
same,viability,[1]; 0.2 µM,0.689
same,viability,[1]; 1 µM,0.711
same,viability,[2]; 0.0016 µM,0.993
same,viability,[2]; 0.008 µM,0.917
same,viability,[2]; 0.04 µM,1.01
same,viability,[2]; 0.2 µM,1
same,viability,[2]; 1 µM,1.01
same,viability,[3]; 0.0016 µM,0.943
same,viability,[3]; 0.008 µM,0.736
same,viability,[3]; 0.04 µM,0.691
same,viability,[3]; 0.2 µM,0.605
same,viability,[3]; 1 µM,0.91
same,viability,[4]; 0.0016 µM,0.964
same,viability,[4]; 0.008 µM,0.799
same,viability,[4]; 0.04 µM,0.73
same,viability,[4]; 0.2 µM,0.615
same,viability,[4]; 1 µM,0.638
same,viability,[5]; 0.0016 µM,1.14
same,viability,[5]; 0.008 µM,0.882
same,viability,[5]; 0.04 µM,0.494
same,viability,[5]; 0.2 µM,0.342
same,viability,[5]; 1 µM,0.347
same,viability,[6]; 0.0016 µM,0.931
same,viability,[6]; 0.008 µM,0.857
same,viability,[6]; 0.04 µM,0.841
same,viability,[6]; 0.2 µM,0.773
same,viability,[6]; 1 µM,0.698
same,viability,[7]; 0.0016 µM,0.951
same,viability,[7]; 0.008 µM,0.924
same,viability,[7]; 0.04 µM,0.787
same,viability,[7]; 0.2 µM,0.784
same,viability,[7]; 1 µM,1.29
same,viability,[8]; 0.0016 µM,1
same,viability,[8]; 0.008 µM,0.974
same,viability,[8]; 0.04 µM,0.968
same,viability,[8]; 0.2 µM,0.973
same,viability,[8]; 1 µM,0.996
same,viability,[9]; 0.0016 µM,0.912
same,viability,[9]; 0.008 µM,0.671
same,viability,[9]; 0.04 µM,0.4
same,viability,[9]; 0.2 µM,0.341
same,viability,[9]; 1 µM,0.357
same,viability,[10]; 0.0016 µM,0.979
same,viability,[10]; 0.008 µM,1.04
same,viability,[10]; 0.04 µM,0.799
same,viability,[10]; 0.2 µM,0.764
same,viability,[10]; 1 µM,1.04
same,viability,[11]; 0.0016 µM,0.917
same,viability,[11]; 0.008 µM,0.807
same,viability,[11]; 0.04 µM,0.788
same,viability,[11]; 0.2 µM,0.7
same,viability,[11]; 1 µM,0.697
same,viability,[12]; 0.0016 µM,1.04
same,viability,[12]; 0.008 µM,1.01
same,viability,[12]; 0.04 µM,1
same,viability,[12]; 0.2 µM,0.982
same,viability,[12]; 1 µM,1.03
same,viability,[13]; 0.0016 µM,0.693
same,viability,[13]; 0.008 µM,0.45
same,viability,[13]; 0.04 µM,0.397
same,viability,[13]; 0.2 µM,0.368
same,viability,[13]; 1 µM,0.445
same,viability,[14]; 0.0016 µM,0.987
same,viability,[14]; 0.008 µM,0.965
same,viability,[14]; 0.04 µM,0.993
same,viability,[14]; 0.2 µM,0.972
same,viability,[14]; 1 µM,1
same,viability,[15]; 0.0016 µM,0.914
same,viability,[15]; 0.008 µM,0.782
same,viability,[15]; 0.04 µM,0.747
same,viability,[15]; 0.2 µM,0.753
same,viability,[15]; 1 µM,0.742
same,viability,[16]; 0.0016 µM,1.14
same,viability,[16]; 0.008 µM,1.01
same,viability,[16]; 0.04 µM,0.693
same,viability,[16]; 0.2 µM,0.54
same,viability,[16]; 1 µM,0.764
same,viability,[17]; 0.0016 µM,0.961
same,viability,[17]; 0.008 µM,1.02
same,viability,[17]; 0.04 µM,0.978
same,viability,[17]; 0.2 µM,0.965
same,viability,[17]; 1 µM,1.14
same,viability,[18]; 0.0016 µM,1.06
same,viability,[18]; 0.008 µM,0.884
same,viability,[18]; 0.04 µM,0.909
same,viability,[18]; 0.2 µM,0.882
same,viability,[18]; 1 µM,0.936
same,viability,[19]; 0.0016 µM,1.14
same,viability,[19]; 0.008 µM,1.14
same,viability,[19]; 0.04 µM,1.07
same,viability,[19]; 0.2 µM,0.986
same,viability,[19]; 1 µM,1.02
same,viability,[20]; 0.0016 µM,0.903
same,viability,[20]; 0.008 µM,0.79
same,viability,[20]; 0.04 µM,0.723
same,viability,[20]; 0.2 µM,0.67
same,viability,[20]; 1 µM,0.6
COc1cccc2c1C(=O)c1c(O)c3c(c(O)c1C2=O)C[C@@](O)(C(C)=O)C[C@@H]3O[C@H]1C[C@H](N)[C@H](O)[C@H](C)O1 [Daunorubicin],viability,[1]; 0.0016 µM,1.1
same,viability,[1]; 0.008 µM,1.13
same,viability,[1]; 0.04 µM,1.07
same,viability,[1]; 0.2 µM,0.745
same,viability,[1]; 1 µM,0.0449
same,viability,[2]; 0.0016 µM,1
same,viability,[2]; 0.008 µM,1.01
same,viability,[2]; 0.04 µM,0.968
same,viability,[2]; 0.2 µM,0.922
same,viability,[2]; 1 µM,0.083
same,viability,[3]; 0.0016 µM,1.27
same,viability,[3]; 0.008 µM,0.865
same,viability,[3]; 0.04 µM,0.312
same,viability,[3]; 0.2 µM,0.164
same,viability,[3]; 1 µM,0.0173
same,viability,[4]; 0.0016 µM,1.09
same,viability,[4]; 0.008 µM,0.972
same,viability,[4]; 0.04 µM,0.424
same,viability,[4]; 0.2 µM,0.216
same,viability,[4]; 1 µM,0.145
same,viability,[5]; 0.0016 µM,1.12
same,viability,[5]; 0.008 µM,0.692
same,viability,[5]; 0.04 µM,0.363
same,viability,[5]; 0.2 µM,0.307
same,viability,[5]; 1 µM,0.446
same,viability,[6]; 0.0016 µM,0.966
same,viability,[6]; 0.008 µM,0.964
same,viability,[6]; 0.04 µM,0.803
same,viability,[6]; 0.2 µM,0.331
same,viability,[6]; 1 µM,0.304
same,viability,[7]; 0.0016 µM,0.998
same,viability,[7]; 0.008 µM,0.777
same,viability,[7]; 0.04 µM,0.515
same,viability,[7]; 0.2 µM,0.558
same,viability,[7]; 1 µM,0.0819
same,viability,[8]; 0.0016 µM,1.08
same,viability,[8]; 0.008 µM,1.09
same,viability,[8]; 0.04 µM,0.947
same,viability,[8]; 0.2 µM,0.82
same,viability,[8]; 1 µM,0.0568
same,viability,[9]; 0.0016 µM,1.18
same,viability,[9]; 0.008 µM,0.943
same,viability,[9]; 0.04 µM,0.449
same,viability,[9]; 0.2 µM,0.252
same,viability,[9]; 1 µM,0.0233
same,viability,[10]; 0.0016 µM,1.04
same,viability,[10]; 0.008 µM,0.983
same,viability,[10]; 0.04 µM,0.505
same,viability,[10]; 0.2 µM,0.323
same,viability,[10]; 1 µM,0.241
same,viability,[11]; 0.0016 µM,1.06
same,viability,[11]; 0.008 µM,1.09
same,viability,[11]; 0.04 µM,1.02
same,viability,[11]; 0.2 µM,0.929
same,viability,[11]; 1 µM,0.716
same,viability,[12]; 0.0016 µM,1.06
same,viability,[12]; 0.008 µM,1.02
same,viability,[12]; 0.04 µM,0.709
same,viability,[12]; 0.2 µM,0.565
same,viability,[12]; 1 µM,0.368
same,viability,[13]; 0.0016 µM,1.21
same,viability,[13]; 0.008 µM,0.74
same,viability,[13]; 0.04 µM,0.0721
same,viability,[13]; 0.2 µM,0.0359
same,viability,[13]; 1 µM,0.0137
same,viability,[14]; 0.0016 µM,1.1
same,viability,[14]; 0.008 µM,0.833
same,viability,[14]; 0.04 µM,0.722
same,viability,[14]; 0.2 µM,0.378
same,viability,[14]; 1 µM,0.0702
same,viability,[15]; 0.0016 µM,1.13
same,viability,[15]; 0.008 µM,1.03
same,viability,[15]; 0.04 µM,0.856
same,viability,[15]; 0.2 µM,0.693
same,viability,[15]; 1 µM,0.588
same,viability,[16]; 0.0016 µM,1.07
same,viability,[16]; 0.008 µM,1.16
same,viability,[16]; 0.04 µM,1.15
same,viability,[16]; 0.2 µM,1.2
same,viability,[16]; 1 µM,0.0266
same,viability,[17]; 0.0016 µM,1.03
same,viability,[17]; 0.008 µM,0.784
same,viability,[17]; 0.04 µM,0.453
same,viability,[17]; 0.2 µM,0.431
same,viability,[17]; 1 µM,0.0369
same,viability,[18]; 0.0016 µM,1.02
same,viability,[18]; 0.008 µM,1.07
same,viability,[18]; 0.04 µM,0.409
same,viability,[18]; 0.2 µM,0.0898
same,viability,[18]; 1 µM,0.0206
same,viability,[19]; 0.0016 µM,1.38
same,viability,[19]; 0.008 µM,1.33
same,viability,[19]; 0.04 µM,0.56
same,viability,[19]; 0.2 µM,0.395
same,viability,[19]; 1 µM,0.102
same,viability,[20]; 0.0016 µM,1.16
same,viability,[20]; 0.008 µM,1.11
same,viability,[20]; 0.04 µM,0.931
same,viability,[20]; 0.2 µM,0.323
same,viability,[20]; 1 µM,0.0341
